Results: paper PMC6018403 (Frontiers in Pharmacology, 2018)
Where two headings read alike, the source gives them in different places.

Assay: Multi-component pharmacokinetic study of GQD, GQD-GC and single herb extracts in rats (plasma, LC/MS/MS)
Format: in vivo, Sprague-Dawley rats
Protocol: Male Sprague-Dawley rats (220–250 g) were used for PK study, and the details were described in Supplemental Data. All procedures were in accordance with the National Institutes of Health Guide for the Care and Use of Laboratory Animals.
For PK study of GQD and its component herbs, rats were randomly divided into six groups (n = 10 for each group) before oral administration.
All blood samples were immediately centrifuged at 6,000 rpm (4°C) for 20 min to obtain plasma. The plasma samples were stored at −80°C.
A Finnigan TSQ Quantum triple quadrupole mass spectrometer was connected to a Surveyor HPLC via ESI interface (ThermoFisher). High purity nitrogen was used as the sheath and auxiliary gas; Ultra-high purity argon was used as the collision gas (1.5 mTorr). Q1 and Q3 quadrupoles were set at unit resolution. […] The column temperature was 40°C. The mobile phase consisted of acetonitrile containing 2% (v/v) methanol (A) and water containing 0.1% (v/v) formic acid (B). […] An aliquot of 5 μL was injected for analysis. UV spectra were obtained by scanning from 200 to 400 nm. The mass spectrometer was operated in the (+)-ESI mode. The optimized parameters were as follows: sheath gas (N2), 50 arb; auxiliary gas (N2), 5 arb; spray voltage, 4.0 kV; capillary temperature, 330°C; collision energy, see Table S1. Analytes were detected in the selected reaction monitoring (SRM) mode. Data were processed by Xcalibur 2.0.7 software (ThermoFisher).
LC/MS/MS calibration and quantitation data were processed with Xcalibur 2.0.7 software (ThermoFisher). The maximal plasma concentrations (Cmax) and their time of occurrence (Tmax) were obtained directly from the measured data. Other pharmacokinetic parameters were calculated by non-compartment or compartment models using WinNonlin® software (v6.1, Pharsight). Unless otherwise stated, results were expressed as the mean ± SD. Statistical significance in differences of the means was determined by Student's t–test, with a significance level of P < 0.05.
Herbal materials and extracts.
The four component herbs, Puerariae Lobatae Radix (Ge-Gen, GG), Scutellariae Radix (Huang-Qin, HQ), Coptidis Rhizoma (Huang-Lian, HL), and Glycyrrhizae Radix et Rhizoma Praeparata cum Melle (Gan-Cao, GC) were purchased from Tianheng Pharmacy. GQD was prepared by decocting the four component herbs […]
pre-extraction of Ge-Gen using 200 mL of water for 0.5 h. The decoctions were combined, filtered, and concentrated in vacuum at 50 °C. GQD-GC was prepared using the same procedure, except that Gan-Cao was removed from the formula. Final concentration of the GQD-GC extract was equivalent to 1.0 g of the crude drugs per mL. For single herb extracts, the herbs were decocted in 8-fold volume of water for […]
Final concentrations of the extracts were 1.0 g/mL for Ge-Gen, and 0.5 g/mL for Huang-Qin, Huang-Lian and […]
For pharmacokinetic study, Male Sprague-Dawley rats (220-250 g) were obtained from the Laboratory Animal Center of Peking University Health Science Center. The […]
The rats had free access to tap water and soy-free custom diet (Ke’ao Xieli Co.). All procedures were in accordance with the National Institutes of Health Guide for the Care and Use of Laboratory Animals […]
Experimental details for the PK study
1. Preparation of internal standard solution, calibration standard solutions, and quality control solutions […]
internal standard solution. Reference standard compounds were dissolved in the internal standard solution to prepare individual stock solutions (1.0 mg/mL). These […]
each compound. The standard solution was then serially diluted to obtain calibration […]
Quality control stock solutions were prepared at three concentration levels as high QC (HQC), middle QC (MQC), and low QC (LQC), based on linear ranges of the analytes.
2.1. Sample preparation for pharmacokinetic study
The calibration standard and quality control solutions for pharmacokinetic study were […]

[1] = male, Sprague-Dawley, rat, in vivo, po, 3.54 g/kg
[2] = male, Sprague-Dawley, rat, in vivo, po, 16.5 g/kg
[3] = male, Sprague-Dawley, rat, in vivo, po, 18.9 g/kg
[4] = male, Sprague-Dawley, rat, in vivo, po, 18.9 g/kg, AUClast
[5] = male, Sprague-Dawley, rat, in vivo, po, 2.36 g/kg
[6] = male, Sprague-Dawley, rat, in vivo, po, 2.36 g/kg, AUClast

Row | AUClast [3] [µg·h/mL] | Cmax [3] [µg/mL] | Tmax [3] [h] | half-life [3] [h] | AUC(0-t) [4] [µg·h/mL] | Cmax [5] [µg/mL] | Tmax [5] [h] | AUC(0-t) [6] [µg·h/mL] | Compound | also measured
1 | – | – | – | – | – | – | – | – | CC1(C)[C@@H](O)CC[C@]2(C)[C@H]3C(=O)C=C4[C@@H]5C[C@@](C)(C(=O)O)CC[C@]5(C)CC[C@@]4(C)[C@]3(C)CC[C@@H]12 [Compound 40, glycyrrhetinic acid] | Cmax (GQD group: rats, oral GQD extract 18.9 g/kg, plasma): 0.37114 ± 0.06669 µg/mL; AUC(0-t) (male, Sprague-Dawley, rat, plasma, po, 2.36 g/kg, GC (Gan-Cao) group: rats, oral extract 2.36 g/kg, plasma, read-out: AUClast): 9.63 ± 0.778 µg·h/mL; AUC(0-t) (male, Sprague-Dawley, rat, plasma, po, 18.9 g/kg, GQD group: rats, oral GQD extract 18.9 g/kg, plasma, read-out: AUClast): 8.48 ± 1.3 µg·h/mL; Cmax (male, Sprague-Dawley, rat, GC (Gan-Cao) group: rats, oral extract 2.36 g/kg, plasma, read-out: Cmax): 0.359 ± 0.0378 µg/mL; half-life (male, Sprague-Dawley, rat, GC (Gan-Cao) group: rats, oral extract 2.36 g/kg, plasma, read-out: T1/2 (converted)): 6.87 ± 2.47 h; Tmax (male, Sprague-Dawley, rat, GC (Gan-Cao) group: rats, oral extract 2.36 g/kg, plasma, read-out: Tmax): 13.4 ± 0.78 h; half-life (male, Sprague-Dawley, rat, GQD group: rats, oral GQD extract 18.9 g/kg, plasma, read-out: T1/2 (converted)): 7.96 ± 2.56 h
2 | 0.1092 ± 0.07323 | 0.00656 ± 0.00403 | 0.74 ± 0.32 | 5.2 ± 1.37 | > 0.1 | – | – | – | c1c2c(cc3c1OCO3)-c1cc3ccc4c(c3c[n+]1CC2)OCO4 [Compound 21, coptisine] | increase of AUClast in GQD group compared with the Huang-Lian group (male, Sprague-Dawley, rat, in vivo, po): 49.1%; Cmax [1]: 0.00533 ± 0.00135 µg/mL; Tmax [1]: 0.68 ± 0.65 h; half-life [1]: 3.83 ± 1.34 h; AUC(0-t) (male, Sprague-Dawley, rat, in vivo, po, 3.54 g/kg, AUClast): 0.0732 ± 0.0212 µg·h/mL; Cmax [2]: 0.00839 ± 0.0013 µg/mL; Tmax [2]: 0.69 ± 0.76 h; half-life [2]: 3.87 ± 0.27 h; AUC(0-t) (male, Sprague-Dawley, rat, in vivo, po, 16.5 g/kg, AUClast): 0.167 ± 0.0244 µg·h/mL
3 | 0.41694 ± 0.21031 | 0.0208 ± 0.00186 | 2.5 ± 4.76 | 12.1 ± 1.16 | > 0.3 | 0.0186 ± 0.00753 | 1.34 ± 3 | 0.237 ± 0.0924 | O=C1C[C@@H](c2ccc(O[C@@H]3O[C@H](CO)[C@@H](O)[C@H](O)[C@H]3O)cc2)Oc2cc(O)ccc21 [Compound 26, liquiritin] | T1/2 [5]: 7.84 ± 0.38 h; plasma concentrations, effect of GQD compared with Gan-Cao (rat, in vivo, po): improved
4 | – | 0.0274 ± 0.00997 | 1 ± 0.93 | 11.2 ± 7.69 | 0.153 ± 0.00934 | 0.02263 ± 0.00022 | 1 ± 2.34 | 0.0754 ± 0.0811 | O=C1C[C@@H](c2ccc(O)cc2)Oc2cc(O)ccc21 [Compound 29, liquiritigenin] | half-life [5]: 9.84 ± 3.52 h
